# Positions count from the first letter of the chain named.
# Tests used:
# [1] = molecular target: T1, human PNPO F48A/E50L/R258L variant (holo-enzyme) (Homo sapiens, UniProt Q9NVS9, E50L/F48A/R258L); test: PLP binding by FMN fluorescence changes, holo triple variant; conditions: 100 nM enzyme, read-out: PLP binding KD^FLUO
# T1 construct: a main form corresponding to the entire protein; made in house; host or cells: E. coli BL21(DE3)
# T1 sequence (Q9NVS9 1-261 F48A/E50L/R258L): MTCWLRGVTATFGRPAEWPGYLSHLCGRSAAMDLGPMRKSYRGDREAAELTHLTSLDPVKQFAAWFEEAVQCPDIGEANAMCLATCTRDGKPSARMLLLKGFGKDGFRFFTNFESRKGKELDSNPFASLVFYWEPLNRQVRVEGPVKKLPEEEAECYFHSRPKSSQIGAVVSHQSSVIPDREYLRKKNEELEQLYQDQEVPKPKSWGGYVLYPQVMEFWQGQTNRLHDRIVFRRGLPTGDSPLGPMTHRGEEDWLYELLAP
# Description: (§1) PLP binding to PNPO can be detected and quantitatively measured using differential scanning fluorimetry (DSF) and also by measuring FMN fluorescence changes. We had previously attributed DSF changes to PLP binding at the active site, while FMN fluorescence changes were attributed to PLP binding at the allosteric site (Barile et al., [2019], [2020]). Previous experiments carried out with the PNPO R161C variant, affecting a residue that is essential for substrate binding and catalysis (and therefore also for PLP binding at the active site), confirms that DSF measurements only report PLP binding at the active site (Barile et al., [2021]; Table 1). […] We expected to observe no FMN fluorescence changes upon titration of the variants with PLP. However, this was not the case, and the dissociation constant values obtained by observing the FMN fluorescence emission were only up to threefold larger in the variants with respect to wild type PNPO (Figure 3). […] To check the second possibility, we measured intrinsic fluorescence changes of wild type and variant apo‐forms (i.e., without FMN) upon PLP titration. […]
# (§2) Analyses of PLP binding, based on FMN fluorescence increase observed upon binding of PLP to PNPO, were performed as described in Barile et al. ([2020]). […] Emission spectra were recorded from […], with excitation and emission slits set at 3 and 5 nm, respectively. […]
# [2] = molecular target: T2, human PNPO F48A variant (holo-enzyme) (Homo sapiens, UniProt Q9NVS9, F48A); test: PLP binding by FMN fluorescence changes, holo F48A; conditions: 100 nM enzyme, read-out: PLP binding KD^FLUO
# T2 construct: a main form corresponding to the entire protein; made in house; host or cells: E. coli BL21(DE3)
# T2 sequence (Q9NVS9 1-261 F48A): T1 sequence (Q9NVS9 1-261 F48A/E50L/R258L) with L50E, L258R
# Description: as §1, §2
# [3] = molecular target: T3, human PNPO F48A/E50L/H248N/R258L variant (holo-enzyme) (Homo sapiens, UniProt Q9NVS9, E50L/F48A/H248N/R258L); test: PLP binding by FMN fluorescence changes, holo quadruple variant; conditions: 100 nM enzyme, read-out: PLP binding KD^FLUO
# T3 construct: a main form corresponding to the entire protein; made in house; host or cells: E. coli BL21(DE3)
# T3 sequence (Q9NVS9 1-261 F48A/E50L/H248N/R258L): T1 sequence (Q9NVS9 1-261 F48A/E50L/R258L) with H248N
# Description: as §1, §2
# [4] = molecular target: human PNPO wild type (holo-enzyme); set-up: method as in Barile et al. ([2020]); conditions: FMN fluorescence changes, ref Barile et al. ([2020]), read-out: PLP binding KD^FLUO; cited from earlier work
# [5] = molecular target: T4, human PNPO 1-31del variant (Homo sapiens, UniProt Q9NVS9); test: PLP binding by DSF, 1-31del; conditions: 50 mM Na-HEPES pH 7.6, 2 μM enzyme
# T4 construct: a main form corresponding to the entire protein; made in house; host or cells: E. coli BL21(DE3)
# T4 sequence (Q9NVS9 32-261): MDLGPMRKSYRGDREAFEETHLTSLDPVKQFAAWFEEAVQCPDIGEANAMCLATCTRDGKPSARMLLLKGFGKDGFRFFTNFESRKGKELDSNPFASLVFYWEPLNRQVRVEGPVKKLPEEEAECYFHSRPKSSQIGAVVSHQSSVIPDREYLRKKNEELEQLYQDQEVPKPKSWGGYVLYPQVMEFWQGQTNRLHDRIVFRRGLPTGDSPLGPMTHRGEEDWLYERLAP
# Experimental: FIGURE 2 DSF measurements with F48A (a), F48A/E50L/R258L (b), F48A/E50L/H248N/R258L (c), and 1‐31del PNPO variants in the presence of different PLP concentrations. Upper panels: Fluorescence change is expressed as fractional variation as a function of temperature. The experiment was carried out using 2 μM enzyme and different PLP concentrations (0, 0.78, 1.56, 3.13, 6.25, 12.5, 25, and 50 μM). Thermal denaturation data are fitted to the Boltzmann equation to obtain melting temperatures. Each curve is the average of three independent experiments with standard error bars. Lower panels: Saturation curves obtained by plotting the melting temperatures as a function of the PLP concentration. […] (μM)' of each lower plot.
smiles,measurement,setting,value
"Cc1ncc(COP(=O)(O)O)c(C=O)c1O [PLP, pyridoxal 5′‐phosphate]",Kd,[1],1380 ± 80 nM
same,Kd,[2],1460 ± 90 nM
same,Kd,[3],2850 ± 250 nM
same,Kd,[4],950 ± 10 nM
same,Kd,[5],3000 ± 300 nM

# Reference: article PMC10804683, “Identification of the pyridoxal 5′‐phosphate allosteric site in human pyridox(am)ine 5′‐phosphate oxidase” (Protein Science : A Publication of the Protein Society, 2024)
